Assay results from patent US7723324B2 (priority 2003, dated 2010).

Key:
[1] = target: T1, peripheral benzodiazepine receptors (Rattus norvegicus, UniProt P16257); assay: benzodiazepine receptor binding (test of LeFur et al.), peripheral
T1 construct: from tissue; Rat heart membranes according to own knowledge of the cited Le Fur et al. method
Protocol: Compounds of the invention were assessed for their binding to the benzodiazepine receptor by the test of Speth et al. [Life Sci. 24, 351 (1979)] for central benzodiazepine receptors and LeFur et al. [Life Sci. 33, 449 (1983)] for peripheral receptors. The compounds were tested first at 1.00E-09, 1.0E-07 and 1.0E-05 M in single determination. […] The specific ligand binding to the receptor is defined as the difference between the total binding and the nonspecific binding determined in the presence of an excess of unlabelled ligand. In each experiment, the respective reference compound was tested concurrently with the test compounds in order to assess the assay suitability. It was tested at several concentrations (for IC50 value determination), and the data were compared with historical values. The assay was rendered valid if suitability criteria were met.
However, the invention is not limited to the compounds found in the Tables.

[2] = maze test, which tests anxiety; type: in vivo; details: 10 mg/kg
Protocol: The compounds of Example 1d (also found in Example 6d), Example 22d, and Example 35d, were also tested in vivo using the maze test, which tests anxiety [Montgomery, J. Comparative and Physiological Psychology 48, 254-60 (1955); Handley et al., Naunyn-Schmiedeberg's Archives of Pharmacology 327, 1-5 (1984); Lister, Psychopharm. 92, 180-85 (1987); Pellow et al., J. Neuroscience Methods 14, 149-67 (1985); Rodgers et al., Ethology and Psychopharmacology, S. J. Cooper and C. A. Hendrie (eds), John Wiley & Sons, Ltd., 9-43 (1994); and Trullas et al., Psychopharm. 111, 323-31 (1993)]. The results of the maze test for these compounds are found in FIGS. 1a, 1b, 2a, 2b, 3a, and 3b. FIGS. 1a, 2a, and 3a are graphs of the Number of Entries in Open Arms vs. mg/kg (dose of administered compound). FIGS. 1b, 2b, and 3b plot the Percent of Time Spent in Open Arms vs. mg/kg (dose of administered compound). […] The results of the maze test are accepted by persons of skill in the art as predictive of therapeutic utility.

T1 sequence (P16257 whole entry): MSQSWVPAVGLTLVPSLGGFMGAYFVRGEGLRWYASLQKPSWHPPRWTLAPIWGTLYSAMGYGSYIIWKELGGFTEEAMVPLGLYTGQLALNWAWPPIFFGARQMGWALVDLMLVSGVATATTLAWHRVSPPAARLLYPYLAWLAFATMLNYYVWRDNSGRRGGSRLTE

Structure (SMILES): Cc1ccc(-c2nc3ccc(C)cn3c2CC(=O)c2c(C)nc3ccccn23)cc1
- IC50 ([1]; Table 1a): 1600 nM

Structure (SMILES): Cc1ccc(-c2nc3ccc(C)cn3c2CC(=O)c2cnn3c(C)cc(C)nc23)cc1
- IC50 ([1]; Table 1a): > 10000 nM

Structure (SMILES): Cc1ccc(-c2nc3ccc(C)cn3c2CC(=O)c2cccn2C)cc1
- IC50 ([1]; Table 1a): > 10000 nM

Structure (SMILES): Cc1ccc(-c2nc3ccc(C)cn3c2CC(=O)c2cccs2)cc1 [Example 1d, 2-(6-Methyl-2-p-tolyl-imidazo[1,2-a]pyridin-3-yl)-1-thiophen-2-yl-ethanone]
- maze test activity (Number of Entries in Open Arms, Percent of Time Spent in Open Arms) [2]: statistically significant activity

Structure (SMILES): Cc1ccc(-c2nc3ccc(C)cn3c2C2CCN(C)C2=O)cc1 (stereo not shown)
- IC50 ([1]; Table 2): > 10000 nM

Structure (SMILES): Cc1ccc(-c2nc3ccc(C)cn3c2CC(=O)c2cc3ccccc3n2C)cc1
- IC50 ([1]; Table 1a): 540 nM

Structure (SMILES): COc1ccsc1C(=O)Cc1c(-c2ccc(C)cc2)nc2ccc(C)cn12 [Example 22D, 1-(3-Methoxy-thiophen-2-yl)-2-(6-methyl-2-p-tolyl-imidazo[1,2-a]pyridin-3-yl)-ethanone]
- maze test activity (Number of Entries in Open Arms, Percent of Time Spent in Open Arms) [2]: statistically significant activity

Structure (SMILES): COc1ccc(-c2nc3ccc(C)cn3c2CC(=O)c2cnn3c(C)cc(C)nc23)cc1
- IC50 ([1]; Table 1b): > 10000 nM

Structure (SMILES): Cc1ccc(-c2nc3ccc(C)cn3c2CC(=O)c2cc(C)n[nH]2)cc1
- IC50 ([1]; Table 1a): > 10000 nM

Structure (SMILES): COc1ccc(-c2nc3ccc(C)cn3c2CC(=O)c2cccn2C)cc1
- IC50 ([1]; Table 1b): 1700 nM
